# “Also recorded” adds a separate entry of the source.
# Tests used:
# InhA [1] = target: T1, InhA (Mycobacterium tuberculosis, UniProt P9WGR1); experiment: Spectrophotometric (340 nm) assay of InhA-catalyzed NADH-dependent reduction, substrate test and steady-state kinetics
# InhA [2] = target: T1, InhA; experiment: Microcalorimetry binding of adenine dinucleotides to InhA; set-up: species or system M. tuberculosis; settings: for binding to InhA (in words): microcalorimetry, dinucleotide 0-100 μM
# [3] = system: NADH-dependent enoyl-CoA reductase of M. smegmatis; settings: read-out: steady-state Michaelis constant; cited from earlier work
# [4] = system: Brassica enoyl-ACP reductase; settings: read-out: steady-state Michaelis constant; cited from earlier work
# [5] = system: mycolic acid biosynthesis; format: biochemical, M. smegmatis
# [6] = system: NC(=O)C1=CN([C@@H]2O[C@H](COP(=O)(O)OP(=O)(O)OC[C@H]3O[C@@H](n4cnc5c(N)ncnc54)[C@H](O)[C@@H]3O)[C@@H](O)[C@H]2O)C=CC1; experiment: purified protein, by the assay type; settings: other: InhA-catalyzed reduction of 2-transoctenoyl-ACP, other substrate saturating
# T1 sequence (P9WGR1 whole entry, looked up): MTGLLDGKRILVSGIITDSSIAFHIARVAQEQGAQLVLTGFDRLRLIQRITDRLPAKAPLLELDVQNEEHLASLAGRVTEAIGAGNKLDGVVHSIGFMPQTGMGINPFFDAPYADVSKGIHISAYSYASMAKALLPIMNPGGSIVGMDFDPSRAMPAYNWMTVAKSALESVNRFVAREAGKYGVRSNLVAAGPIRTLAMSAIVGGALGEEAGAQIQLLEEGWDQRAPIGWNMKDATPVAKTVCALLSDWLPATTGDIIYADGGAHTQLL
molecule,measurement,setting,value
2-transoctenoyl-ACP,maximum velocity,InhA [1]; InhA-catalyzed reduction of 2-transoctenoyl-ACP by NADH,1570 µM/min/mg
same,activity as substrate for InhA in the presence of NADH,InhA [1]; measured spectrophotometrically at 340 nm,Activity was demonstrated
same,Km,"InhA [1]; read-out: steady-state Km, InhA-catalyzed reduction of 2-transoctenoyl-ACP, other substrate saturating",2000 nM
NC(=O)C1=CN([C@@H]2O[C@H](COP(=O)(O)OP(=O)(O)OC[C@H]3O[C@@H](n4cnc5c(N)ncnc54)[C@H](O)[C@@H]3O)[C@@H](O)[C@H]2O)C=CC1 [NADH],"binding stoichiometry, molecules per dimer of InhA","InhA [2]; 37° C., 50 mM Tris pH 7.3",two
same,enthalpy of binding,"InhA [2]; 37° C., 50 mM Tris pH 7.3",-13.5 kcal/mol
same,binding to InhA (in words),InhA [2],tight and stoichiometric binding
same,Kd,"InhA [2]; titration calorimetry, 37° C., 50 mM Tris pH 7.3, 100 μM InhA, read-out: Kd (binding constant) for binding to InhA",2000 nM
same,Km,[3],21 µM
same,Km,[4],7.6 µM
NC(=O)C1=CN([C@@H]2O[C@H](COP(=O)(O)OP(=O)(O)OC[C@H]3O[C@@H](n4cnc5c(N)ncnc54)[C@H](OP(=O)(O)O)[C@@H]3O)[C@@H](O)[C@H]2O)C=CC1 [NADPH],binding to InhA (in words),InhA [2],"Neither NADPH, NADP nor NAD exhibited significant binding; also recorded: failed to show appreciable binding affinity"
NC(=O)c1ccc[n+]([C@@H]2O[C@H](COP(=O)([O-])OP(=O)(O)OC[C@H]3O[C@@H](n4cnc5c(N)ncnc54)[C@H](OP(=O)(O)O)[C@@H]3O)[C@@H](O)[C@H]2O)c1 [NADP],binding to InhA (in words),InhA [2],"Neither NADPH, NADP nor NAD exhibited significant binding; also recorded: failed to show appreciable binding affinity"
NC(=O)c1ccc[n+]([C@@H]2O[C@H](COP(=O)([O-])OP(=O)(O)OC[C@H]3O[C@@H](n4cnc5c(N)ncnc54)[C@H](O)[C@@H]3O)[C@@H](O)[C@H]2O)c1 [NAD],binding to InhA (in words),InhA [2],"Neither NADPH, NADP nor NAD exhibited significant binding; also recorded: failed to show appreciable binding affinity"
NNC(=O)c1ccncc1 [isoniazid],isoniazid-inhibition of mycolic acid biosynthesis (in words),[5],marked resistance to isoniazid-inhibition
CCCCC/C=C/C(=O)SCCNC(=O)CCNC(=O)[C@H](O)C(C)(C)COP(=O)(O)OP(=O)(O)OC[C@H]1O[C@@H](n2cnc3c(N)ncnc32)[C@H](O)[C@@H]1OP(=O)(O)O [octenoyl-CoA],Km,[3],232 µM
InhA (Mycobacterium tuberculosis H37Rv),Km,[6],8 µM
octenoyl-ACP,Km,[4],< 1 µM
